# Assay results from patent US8871753B2, “Macrocyclic compounds and their use as kinase inhibitors” (Incyte Corporation, priority 2008, dated 2014).
# Counter-ions that a name gives are not always drawn. Like-named read-outs stand apart in the source and are kept apart here.
# Columns and labels:
# Assay type in all cases: biochemical
# [1] = biological target: T1, human JAK1 (a.a. 837-1142) (Homo sapiens, UniProt P23458); experiment: In vitro JAK kinase assay (HTRF, phosphorylation of a biotinylated peptide), JAK1; conditions: read-out: JAK1 IC50
# T1 construct: human JAK1 (a.a. 837-1142); His tag (N); made in house; host or cells: insect cells (baculovirus)
# T1 sequence (P23458 849-1154): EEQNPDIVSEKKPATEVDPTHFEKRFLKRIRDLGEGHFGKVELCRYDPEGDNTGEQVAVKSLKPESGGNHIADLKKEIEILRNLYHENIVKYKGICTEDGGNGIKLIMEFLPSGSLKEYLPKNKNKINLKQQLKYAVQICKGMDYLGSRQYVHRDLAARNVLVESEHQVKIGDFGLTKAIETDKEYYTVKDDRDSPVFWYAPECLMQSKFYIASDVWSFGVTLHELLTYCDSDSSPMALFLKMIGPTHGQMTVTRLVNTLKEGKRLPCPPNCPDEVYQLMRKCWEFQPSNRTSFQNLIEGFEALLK
# Protocol: (§1) The catalytic activity of JAK1, JAK2 or JAK3 was assayed by measuring the phosphorylation of a biotinylated peptide. The phosphorylated peptide was detected by homogenous time resolved fluorescence (HTRF). […] The ATP concentration in the reactions was 90 μM for JAK1, 30 μM for JAK2 and 3 μM for JAK3. Reactions were carried out at room temperature for 1 hr and then stopped with 20 μL 45 mM EDTA, 300 nM SA-APC, 6 nM Eu-Py20 in assay buffer (Perkin Elmer, Boston, Mass.). Binding to the Europium labeled antibody took place for 40 minutes and HTRF signal was measured on a Fusion plate reader (Perkin Elmer, Boston, Mass.).
# (§2) The catalytic activity of JAK1, JAK2 or JAK3 was assayed by measuring the phosphorylation of a biotinylated peptide. The phosphorylated peptide was detected by homogenous time resolved fluorescence (HTRF). […] Reactions were carried out at room temperature for 1 hr and then stopped with 20 μL 45 mM EDTA, 300 nM SA-APC, 6 nM Eu-Py20 in assay buffer (Perkin Elmer, Boston, Mass.). Binding to the Europium labeled antibody took place for 40 minutes and HTRF signal was measured on a Fusion plate reader (Perkin Elmer, Boston, Mass.).
# [2] = biological target: T2, human JAK2 (a.a. 828-1132) (Homo sapiens, UniProt O60674); experiment: In vitro JAK kinase assay (HTRF, phosphorylation of a biotinylated peptide), JAK2
# T2 construct: JAK2 (a.a. 828-1132); His tag (N); made in house; host or cells: insect cells (baculovirus)
# T2 sequence (O60674 828-1132): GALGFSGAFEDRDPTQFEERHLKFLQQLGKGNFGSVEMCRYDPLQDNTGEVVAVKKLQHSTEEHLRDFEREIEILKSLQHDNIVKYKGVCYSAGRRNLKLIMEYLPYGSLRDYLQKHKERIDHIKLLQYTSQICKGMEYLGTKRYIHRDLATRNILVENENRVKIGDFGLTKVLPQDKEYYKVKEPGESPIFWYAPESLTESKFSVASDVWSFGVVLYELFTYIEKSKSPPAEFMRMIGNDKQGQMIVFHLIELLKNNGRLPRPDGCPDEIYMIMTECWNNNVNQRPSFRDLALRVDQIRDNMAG
# Protocol: as §1, §2
# TYK2 = TYK2 (Homo sapiens, UniProt P29597); experiment: TYK2 kinase inhibition (Table A1)
# TYK2, sequence (P29597 whole entry): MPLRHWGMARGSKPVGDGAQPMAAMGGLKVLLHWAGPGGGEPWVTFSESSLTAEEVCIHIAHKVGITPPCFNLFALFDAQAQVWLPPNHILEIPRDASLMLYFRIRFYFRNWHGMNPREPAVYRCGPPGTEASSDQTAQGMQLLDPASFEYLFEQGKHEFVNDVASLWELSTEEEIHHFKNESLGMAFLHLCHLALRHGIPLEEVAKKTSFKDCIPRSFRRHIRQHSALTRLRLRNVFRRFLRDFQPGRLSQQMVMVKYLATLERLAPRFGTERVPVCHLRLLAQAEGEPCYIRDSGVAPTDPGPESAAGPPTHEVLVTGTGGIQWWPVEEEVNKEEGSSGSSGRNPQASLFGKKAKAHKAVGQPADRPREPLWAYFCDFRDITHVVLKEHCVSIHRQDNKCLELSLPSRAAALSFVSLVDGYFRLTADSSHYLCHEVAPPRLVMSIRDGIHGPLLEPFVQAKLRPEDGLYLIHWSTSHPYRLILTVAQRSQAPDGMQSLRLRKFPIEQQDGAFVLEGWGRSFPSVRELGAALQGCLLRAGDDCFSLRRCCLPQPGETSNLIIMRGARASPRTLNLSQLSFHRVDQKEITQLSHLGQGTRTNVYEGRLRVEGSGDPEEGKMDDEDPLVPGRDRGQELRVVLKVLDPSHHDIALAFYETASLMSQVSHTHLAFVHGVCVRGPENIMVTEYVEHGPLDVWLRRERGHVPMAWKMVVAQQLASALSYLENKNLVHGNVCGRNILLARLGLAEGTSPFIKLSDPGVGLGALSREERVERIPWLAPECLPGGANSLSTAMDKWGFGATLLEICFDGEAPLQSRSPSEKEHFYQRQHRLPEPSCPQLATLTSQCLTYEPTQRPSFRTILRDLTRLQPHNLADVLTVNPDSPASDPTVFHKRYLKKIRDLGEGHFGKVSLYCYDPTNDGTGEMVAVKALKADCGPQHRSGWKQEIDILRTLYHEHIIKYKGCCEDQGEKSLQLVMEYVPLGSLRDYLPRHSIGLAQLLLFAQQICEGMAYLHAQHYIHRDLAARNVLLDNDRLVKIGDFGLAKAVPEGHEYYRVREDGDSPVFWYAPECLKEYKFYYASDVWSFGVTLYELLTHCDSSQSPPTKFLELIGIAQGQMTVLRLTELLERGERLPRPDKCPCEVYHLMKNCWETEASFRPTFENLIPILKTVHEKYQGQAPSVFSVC
# [3] = biological target: T3, human JAK3 (a.a. 781-1124) (Homo sapiens, UniProt P52333); experiment: In vitro JAK kinase assay (HTRF, phosphorylation of a biotinylated peptide), JAK3
# T3 construct: JAK3 (a.a. 781-1124); His tag (N); made in house; host or cells: insect cells (baculovirus)
# T3 sequence (P52333 781-1124): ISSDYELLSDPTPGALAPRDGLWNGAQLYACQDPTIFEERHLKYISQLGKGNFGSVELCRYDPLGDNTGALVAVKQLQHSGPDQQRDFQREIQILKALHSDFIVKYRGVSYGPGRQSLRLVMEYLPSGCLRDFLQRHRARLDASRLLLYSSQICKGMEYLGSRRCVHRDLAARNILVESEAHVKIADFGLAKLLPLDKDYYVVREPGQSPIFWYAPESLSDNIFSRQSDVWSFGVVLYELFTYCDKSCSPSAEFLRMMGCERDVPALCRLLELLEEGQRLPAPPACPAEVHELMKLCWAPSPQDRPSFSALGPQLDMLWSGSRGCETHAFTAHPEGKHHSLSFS
# Protocol: as §1, §2
IC50 ([1]; Table D1) [nM],IC50 ([2]; Table D1) [nM],IC50 ([3]; Table D1) [nM],SMILES,other results
9.4,5.4,109,"O=C(C[C@H]1CCCN(C(=O)c2ccccc2)C1)Nc1ccc2cc1CCc1cncc(c1)Nc1ncc(Cl)c(n1)N2 [Example D207, 2-[(3R)-1-Benzoylpiperidin-3-yl]-N-[6-chloro-2,4,8,18,22-pentaazatetracyclo[14.3.1.1(3,7).1(9,13)]docosa-1(20),3(22),4,6,9(21),10,12,16,18-nonaen-12-yl]acetamide bis(trifluoroacetate)]",IC50 (TYK2; Table D1): 56 nM
41,> 400,> 400,"N#Cc1cccnc1N1CCN(C(=O)COc2ccc3cc2CCc2cncc(c2)Nc2ncc(Cl)c(n2)N3)CC1 [Example D238, 2-[4-({[6-Chloro-2,4,8,18,22-pentaazatetracyclo[14.3.1.1(3,7).1(9,13)]docosa-1(20),3(22),4,6,9(21),10,12,16,18-nonaen-12-yl]oxy}acetyl)piperazin-1-yl]nicotinonitrile tris(trifluoroacetate)]",IC50 (TYK2; Table D1): > 400 nM
18,17,> 400,"Cc1cc(C(=O)N2CCN(C(=O)COc3ccc4cc3CCc3cncc(c3)Nc3ncc(Cl)c(n3)N4)CC2)no1 [Example D251, 6-Chloro-12-(2-{4-[(5-methylisoxazol-3-yl)carbonyl]piperazin-1-yl}-2-oxoethoxy)-2,4,8,18,22-pentaazatetracyclo[14.3.1.1(3,7).1(9,13)]docosa-1(20),3(22),4,6,9(21),10,12,16,18-nonaene bis(trifluoroacetate)]",IC50 (TYK2; Table D1): > 400 nM
5.7,10,69,"O=C(C[C@@H]1CCCN(C(=O)Nc2ccccc2)C1)Nc1ccc2cc1CCc1cncc(c1)Nc1ncc(Cl)c(n1)N2 [Example D198, (3S)-3-(2-{[6-Chloro-2,4,8,18,22-pentaazatetracyclo[14.3.1.1(3,7).1(9,13)]docosa-1(20),3(22),4,6,9(21),10,12,16,18-nonaen-12-yl]amino}-2-oxoethyl)-N-phenylpiperidine-1-carboxamide bis(trifluoroacetate)]",IC50 (TYK2; Table D1): 27 nM
22,12,65,"O=C(C[C@@H]1CCCN(C(=O)c2ccccc2)C1)Nc1ccc2cc1CCc1cccc(c1)Nc1ncc(Cl)c(n1)N2 [Example D202, 2-[(3S)-1-Benzoylpiperidin-3-yl]-N-[6-chloro-2,4,8,22-tetraazatetracyclo[14.3.1.1(3,7).1(9,13)]docosa-1(20),3(22),4,6,9(21),10,12,16,18-nonaen-12-yl]acetamide trifluoroacetate]",IC50 (TYK2; Table D1): 30 nM
53,103,> 400,"c1cc2cc(c1)Nc1ccnc(n1)Nc1cncc(c1)CC2 [Example D217, 2,4,8,18,22-Pentaazatetracyclo[14.3.1.1(3,7).1(9,13)]docosa-1(20),3(22),4,6,9(21),10,12,16,18-nonaene bis(trifluoroacetate)]",
64,> 1000,,"O=C(C[C@H]1CCCN(c2nc3ccccc3s2)C1)Nc1ccc2cc1CCc1cncc(c1)Nc1ncc(Cl)c(n1)N2 [Example D212, 2-[(3R)-1-(1,3-Benzothiazol-2-yl)piperidin-3-yl]-N-[6-chloro-2,4,8,18,22-pentaazatetracyclo[14.3.1.1(3,7).1(9,13)]docosa-1(20),3(22),4,6,9(21),10,12,16,18-nonaen-12-yl]acetamide tris(trifluoroacetate)]",
12,> 1000,,"O=C(C[C@H]1CCCN(c2nc3cccnc3o2)C1)Nc1ccc2cc1CCc1cncc(c1)Nc1ncc(Cl)c(n1)N2 [Example D214, N-[6-Chloro-2,4,8,18,22-pentaazatetracyclo[14.3.1.1(3,7).1(9,13)]docosa-1(20),3(22),4,6,9(21),10,12,16,18-nonaen-12-yl]-2-[(3R)-1-[1,3]oxazolo[5,4-b]pyridin-2-ylpiperidin-3-yl]acetamide tris(trifluoroacetate)]",

# Second part, the compound before the results:
SMILES,IC50 ([1]; Table D1) [nM],IC50 ([2]; Table D1) [nM],IC50 ([3]; Table D1) [nM],other results
"Cc1nc(CC(=O)Nc2ccc3cc2CCc2cccc(c2)Nc2ncc(Cl)c(n2)N3)c(C)s1 [Example C46, N-[6-Chloro-2,4,8,22-tetraazatetracyclo[14.3.1.1(3,7).1(9,13)]docosa-1(20),3(22),4,6,9(21),10,12,16,18-nonaen-12-yl]-2-(2,5-dimethyl-1,3-thiazol-4-yl)acetamide trifluoroacetate]",,,,IC50 [1]: 79 nM; IC50 [2]: 170 nM; IC50 (TYK2): 165 nM; IC50 [3]: 1490 nM
"O=C(Nc1ccc2cc1CCc1cccc(c1)Nc1ncc(Cl)c(n1)N2)c1nc2ccccc2s1 [Example B74, N-[6-Chloro-2,4,8,22-tetraazatetracyclo[14.3.1.1(3,7).1(9,13)]docosa-1(20), 3(22),4,6,9(21),10,12,16,18-nonaen-12-yl]-1,3-benzothiazole-2-carboxamide trifluoroacetate]",,,,IC50 ([1]; Table B1): > 1000 nM; IC50 (TYK2; Table B1): > 1000 nM; IC50 ([3]; Table B1): > 1000 nM
"O=C(C[C@H]1CCN(C(=O)c2nc[nH]n2)C1)Nc1ccc2cc1CCc1cncc(c1)Nc1ncc(Cl)c(n1)N2 [Example D128, N-[6-Chloro-2,4,8,18,22-pentaazatetracyclo[14.3.1.1(3,7).1(9,13)]docosa-1(20),3(22),4,6,9(21),10,12,16,18-nonaen-12-yl]-2-[(3R)-1-(1H-1,2,4-triazol-3-ylcarbonyl)pyrrolidin-3-yl]acetamide bis(trifluoroacetate)]",21,199,,
"N#Cc1cccc(NC(=O)N2CC[C@H](CC(=O)Nc3ccc4cc3CCc3cncc(c3)Nc3ncc(Cl)c(n3)N4)C2)c1 [Example D99, (3R)-3-(2-{[6-Chloro-2,4,8,18,22-pentaazatetracyclo[14.3.1.1(3,7).1(9,13)]docosa-1(20),3(22),4,6,9(21),10,12,16,18-nonaen-12-yl]amino}-2-oxoethyl)-N-(3-cyanophenyl)pyrrolidine-1-carboxamide bis(trifluoroacetate)]",15,107,,
"O=C(C[C@@H]1CCN(C(=O)c2nc[nH]n2)C1)Nc1ccc2cc1CCc1cncc(c1)Nc1ncc(Cl)c(n1)N2 [Example D131, N-[6-Chloro-2,4,8,18,22-pentaazatetracyclo[14.3.1.1(3,7).1(9,13)]docosa-1(20),3(22),4,6,9(21),10,12,16,18-nonaen-12-yl]-2-[(3S)-1-(1H-1,2,4-triazol-3-ylcarbonyl)pyrrolidin-3-yl]acetamide bis(trifluoroacetate)]",8.6,125,,
"Cc1cc(C(=O)N2CC[C@H](CC(=O)Nc3ccc4cc3CCc3cncc(c3)Nc3ncc(Cl)c(n3)N4)C2)no1 [Example D109, N-[6-Chloro-2,4,8,18,22-pentaazatetracyclo[14.3.1.1(3,7).1(9,13)]docosa-1(20),3(22),4,6,9(21),10,12,16,18-nonaen-12-yl]-2-{(3R)-1-[(5-methylisoxazol-3-yl)carbonyl]pyrrolidin-3-yl}acetamide bis(trifluoroacetate)]",16,189,,
"N#Cc1ccc(NC(=O)N2CC[C@@H](CC(=O)Nc3ccc4cc3CCc3cncc(c3)Nc3ncc(Cl)c(n3)N4)C2)cc1 [Example D114, (3S)-3-(2-{[6-Chloro-2,4,8,18,22-pentaazatetracyclo[14.3.1.1(3,7).1(9,13)]docosa-1(20),3(22),4,6,9(21),10,12,16,18-nonaen-12-yl]amino}-2-oxoethyl)-N-(4-cyanophenyl)pyrrolidine-1-carboxamide bis(trifluoroacetate)]",9,83,,
"O=C(C[C@@H]1CCN(C(=O)Nc2cccc(F)c2)C1)Nc1ccc2cc1CCc1cncc(c1)Nc1ncc(Cl)c(n1)N2 [Example D119, (3S)-3-(2-{[6-Chloro-2,4,8,18,22-pentaazatetracyclo[14.3.1.1(3,7).1(9,13)]docosa-1(20),3(22),4,6,9(21),10,12,16,18-nonaen-12-yl]amino}-2-oxoethyl)-N-(3-fluorophenyl)pyrrolidine-1-carboxamide bis(trifluoroacetate)]",10,198,,
"O=C(C[C@@H]1CCN(C(=O)c2c[nH]nn2)C1)Nc1ccc2cc1CCc1cncc(c1)Nc1ncc(Cl)c(n1)N2 [Example D132, N-[6-Chloro-2,4,8,18,22-pentaazatetracyclo[14.3.1.1(3,7).1(9,13)]docosa-1(20),3(22),4,6,9(21),10,12,16,18-nonaen-12-yl]-2-[(3S)-1-(1H-1,2,3-triazol-4-ylcarbonyl)pyrrolidin-3-yl]acetamide bis(trifluoroacetate)]",3.2,43,,
